In US11254686B1 (Corvus Pharmaceuticals, Inc., priority 2017, dated 2022):
pIC50: −log10 of the molar value. Read-outs that look alike come from different tables or passages of the source.

What was measured:
[1] = target: adenosine A2B receptor (Homo sapiens (Human), UniProt P29275); experiment: Adenosine receptor activity assay (Table 1), A2B activity; type: biochemical; conditions: for pIC50: read-out: Ave A2B cAMP IC50
[2] = target: adenosine A2A receptor (Homo sapiens (Human), UniProt P29274); experiment: Adenosine receptor activity assay (Table 1), A2A activity; type: biochemical; conditions: read-out: Ave A2A cAMP IC50
[3] = target: T1, adenosine A1 receptor (Homo sapiens (Human), UniProt P30542); experiment: Adenosine receptor activity assay (Table 1), A1 cAMP; type: cell-based
[4] = target: T2, adenosine A3 receptor (Homo sapiens (Human), UniProt P0DMS8); experiment: Adenosine receptor activity assay (Table 1), A3 cAMP; type: cell-based
[5] = target: T1, adenosine A1 receptor; experiment: Adenosine receptor activity assay (Table 1), A1 cAMP; type: biochemical
Procedure: (§1) Table 1. Compounds (e.g., Adenosine Receptor modulators) and activity assay results. The legend is as follows: A=<10 nM; B=10-50 nM; C=50-100 nM; D=100-500; and E=>500 nM. The ratio corresponds to the A2A activity to the A2B activity; or A2A/A2B.

[6] = target: T2, adenosine A3 receptor; experiment: Adenosine receptor activity assay (Table 1), A3 cAMP; type: biochemical
Procedure: as §1

[7] = A2A activity to A2B activity (A2A/A2B)
[8] = A2A activity to the A2B activity, A2A/A2B

adenosine A2A receptor, sequence (P29274 whole entry): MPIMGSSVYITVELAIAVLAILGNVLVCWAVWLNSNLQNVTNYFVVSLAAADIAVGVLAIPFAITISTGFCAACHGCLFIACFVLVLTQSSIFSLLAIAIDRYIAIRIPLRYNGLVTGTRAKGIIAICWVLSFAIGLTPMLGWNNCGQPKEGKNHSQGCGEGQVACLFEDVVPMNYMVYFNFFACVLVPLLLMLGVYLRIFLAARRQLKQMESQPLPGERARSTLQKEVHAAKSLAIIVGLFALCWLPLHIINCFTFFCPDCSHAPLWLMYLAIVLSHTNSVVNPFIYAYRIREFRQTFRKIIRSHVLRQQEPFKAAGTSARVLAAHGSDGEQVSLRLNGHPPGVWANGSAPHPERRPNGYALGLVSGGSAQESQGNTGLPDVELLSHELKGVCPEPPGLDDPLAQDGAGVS
T2 sequence (P0DMS8 whole entry): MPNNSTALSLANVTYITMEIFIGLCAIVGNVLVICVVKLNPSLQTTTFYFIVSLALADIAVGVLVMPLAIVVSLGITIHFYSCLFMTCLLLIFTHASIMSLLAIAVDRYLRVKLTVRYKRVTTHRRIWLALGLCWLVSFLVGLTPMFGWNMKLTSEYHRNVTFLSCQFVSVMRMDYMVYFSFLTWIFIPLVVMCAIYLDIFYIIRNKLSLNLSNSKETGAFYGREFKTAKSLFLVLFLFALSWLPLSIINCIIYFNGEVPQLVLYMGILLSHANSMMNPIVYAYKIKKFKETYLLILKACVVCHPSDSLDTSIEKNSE
T1 sequence (P30542 whole entry): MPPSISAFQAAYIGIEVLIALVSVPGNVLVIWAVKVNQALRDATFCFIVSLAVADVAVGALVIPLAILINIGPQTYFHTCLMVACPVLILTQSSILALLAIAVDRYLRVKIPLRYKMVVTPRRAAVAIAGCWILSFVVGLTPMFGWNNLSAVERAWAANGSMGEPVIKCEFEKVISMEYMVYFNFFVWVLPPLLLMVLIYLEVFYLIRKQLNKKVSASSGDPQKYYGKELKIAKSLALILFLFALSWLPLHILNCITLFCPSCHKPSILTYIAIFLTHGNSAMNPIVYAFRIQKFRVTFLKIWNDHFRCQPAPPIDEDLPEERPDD
adenosine A2B receptor, sequence (P29275 whole entry): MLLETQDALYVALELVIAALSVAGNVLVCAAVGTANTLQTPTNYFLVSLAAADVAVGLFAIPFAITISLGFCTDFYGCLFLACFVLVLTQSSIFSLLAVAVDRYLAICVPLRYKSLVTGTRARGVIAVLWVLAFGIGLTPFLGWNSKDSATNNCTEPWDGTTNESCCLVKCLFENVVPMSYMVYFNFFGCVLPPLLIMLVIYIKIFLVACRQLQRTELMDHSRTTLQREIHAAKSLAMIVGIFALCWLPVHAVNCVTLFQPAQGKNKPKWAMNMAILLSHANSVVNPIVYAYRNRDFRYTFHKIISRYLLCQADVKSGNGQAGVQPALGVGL

Row | Molecule | Ratio [1, 7] | pIC50 [1] | pIC50 [2] | pIC50 [3] | pIC50 [4] | Ratio [1, 8] | pIC50 [5] | pIC50 [6]
1 | C[C@H](Nc1nc(C(=O)NC(C)(C)C)c2sccc2n1)c1ccccn1 [Example Z201, (S)—N-(tert-Butyl)-2-((1-(pyridin-2-yl)ethyl)amino)thieno[3,2-d]pyrimidine-4-carboxamide] | 2.22 | 7.30 to 8.00 | 7.00 to 7.30 | 7.00 to 7.30 | 7.00 to 7.30 |  |  | 
2 | CNc1cc2nc(N[C@@H](C)c3ccccn3)nc(C(=O)N3CC(O)C3)c2s1 [Example Z221, (S)-(3-Hydroxyazetidin-1-yl)(6-(methylamino)-2-((1-(pyridin-2-yl)ethyl)amino)thieno[3,2-d]pyrimidin-4-yl)methanone] | 52.95 | 7.30 to 8.00 | < 6.30 | < 6.30 | 7.00 to 7.30 |  |  | 
3 | CNc1cc2nc(N[C@@H](C)c3ccccn3)nc(C(=O)NCCO)c2s1 [Example Z222, (S)—N-(2-Hydroxyethyl)-6-(methylamino)-2-((1-(pyridin-2-yl)ethyl)amino)thieno[3,2-d]pyrimidine-4-carboxamide] | 44.93 | 7.30 to 8.00 | < 6.30 | < 6.30 | < 6.30 |  |  | 
4 | C[C@H](Nc1nc(C(=O)N2CCC2)c2sccc2n1)c1cncc(Cl)c1 [Example Z232, (S)-Azetidin-1-yl(2-((1-(5-chloropyridin-3-yl)ethyl)amino)thieno[3,2-d]pyrimidin-4-yl)methanone] | 60.88 | > 8.00 | 6.30 to 7.00 | < 6.30 | < 6.30 |  |  | 
5 | COC1CN(C(=O)c2nc(N[C@@H](C)c3cncc(Cl)c3)nc3ccsc23)C1 [Example Z233, (S)-(2-((1-(5-Chloropyridin-3-yl)ethyl)amino)thieno[3,2-d]pyrimidin-4-yl)(3-methoxyazetidin-1-yl)methanone] | 51.97 | > 8.00 | 6.30 to 7.00 | < 6.30 | < 6.30 |  |  | 
6 | Cc1cc2nc(N[C@@H](C)c3cncc(F)c3)nc(C(=O)N3CC(NC(=O)[C@@H]4CCOC4)C3)c2s1 [Example Z598, (R)—N-(1-(2-(((S)-1-(5-Fluoropyridin-3-yl)ethyl)amino)-6-methylthieno[3,2-d]pyrimidine-4-carbonyl)azetidin-3-yl)tetrahydrofuran-3-carboxamide] |  | 7.30 to 8.00 | 7.30 to 8.00 |  |  | 0.68 | < 6.30 | 6.30 to 7.00
7 | (S)—N-((6-methoxypyridin-2-yl)methyl)-6-methyl-2-((1-(pyridin-2-yl)ethyl)amino)thieno[3,2-d]pyrimidine-4-carboxamide [Example Z464] |  | > 8.00 | 6.30 to 7.00 |  |  | 19.50 | < 6.30 | 7.00 to 7.30

Now from value to molecule:

Row | Ratio [1, 7] | pIC50 [1] | pIC50 [2] | pIC50 [3] | pIC50 [4] | Ratio [1, 8] | pIC50 [5] | pIC50 [6] | Molecule
8 | 3.51 | > 8.00 | 7.30 to 8.00 | < 6.30 | 7.00 to 7.30 |  |  |  | CC(C)NC(=O)c1nc(N[C@@H](C)c2ccccn2)nc2ccsc12 [Example Z199, (S)—N-Isopropyl-2-((1-(pyridin-2-yl)ethyl)amino)thieno[3,2-d]pyrimidine-4-carboxamide]
9 | 158.10 | > 8.00 | 6.30 to 7.00 | < 6.30 | < 6.30 |  |  |  | C[C@H](Nc1nc(C(=O)N2CCCC2)c2sc(N)cc2n1)c1cncc(F)c1 [Example Z223, (S)-(6-Amino-2-((1-(5-fluoropyridin-3-yl)ethyl)amino)thieno[3,2-d]pyrimidin-4-yl)(pyrrolidin-1-yl)methanone]
10 | 11.22 | > 8.00 | 7.00 to 7.30 | < 6.30 | < 6.30 |  |  |  | C[C@H](Nc1nc(C(=O)NCC(F)(F)F)c2sccc2n1)c1ccccn1 [Example Z226, (S)-2-((1-(Pyridin-2-yl)ethyl)amino)-N-(2,2,2-trifluoroethyl)thieno[3,2-d]pyrimidine-4-carboxamide]
